Key:
[1] = Solubility in fasted state simulated intestinal fluid (FaSSIF); type: physicochemical; settings: thermodynamic from solid, After 4 hours at room temperature
Source text: Experimental Example 2: Confirmation of Solubility of Examples 1 to 5 in FaSSIF
The solubility of the solid dispersions prepared in Examples 1 to 5 in fasted state simulated intestinal fluid (FaSSIF) was confirmed, and the results are shown in Table 1.
Experimental Example 4: Confirmation of Solubility of Examples 6 to 7 in FaSSIF
The solubility of the solid dispersions prepared in Examples 6 to 7 in fasted state simulated intestinal fluid (FaSSIF) was confirmed in the same manner as in Experimental Example 2, and the results are shown in Table 2.

[2] = Pharmacokinetic test (in vivo), oral administration, plasma concentration by LC-MS/MS; parameters: species or system rats; settings: 10 mg/kg
Method: Experimental Example 5: Confirmation of Bioavailability of Examples 1 and 6
Specifically, the drug was administered orally to rats, and blood was collected from the jugular vein at a predetermined time. The collected blood was centrifuged to separate plasma, pretreated, and then the concentration was analyzed by LC-MS/MS. Non-compartmental pharmacokinetic parameters were calculated using WinNonlin (Phoenix™, version 6.1) from the analyzed blood concentration-time data of the drug, and the results are shown in Table 3.

- solubility at 4 h ([1]; Table 1 (Experimental Example 2)): 1.89 µg/mL
- solubility at 4 h ([1]; Table 2 (Experimental Example 4)): 1.66 µg/mL
- AUClast Fold change ([2]; relative to the compound of Chemical Formula I): 1.00
- AUC(0-t) ([2]; rat, plasma): 5460 ng·h/mL
- Cmax ([2]; rat, plasma): 1020 ng/mL
- Tmax ([2]; rat, plasma): 1 h
- half-life ([2]; rat, plasma): 5.39 h
SMILES: COCCOc1cc(F)c(N2CCN(c3nc4c(nnn4C)c(=O)[nH]3)CC2)c(F)c1 [Compound of Chemical Formula I]
